# From patent publication US9180163B2, “Parstatin peptides” (priority 2009, dated 2015)
# Where two headings read alike, the source gives them in different places.
# Assays:
# HUVEC cells [1] = assay: modified Boyden's chamber cell migration assay; format: cell-based, human; conditions: toward 5% FBS, 6 h; other peptides 10 μM
# Experimental: HUVEC cell migration was assessed using a modified Boyden's chamber assay, i.e., in Transwell cell culture chambers (Corning Life Sciences, Acton, Mass.). Briefly, polycarbonate filters with 8 μm pores were used to separate the upper and the lower chambers. Cells were added to the upper compartment at a density of 10,000 cells/100 μl in serum-free medium containing 0.5% BSA and incubated for 6 h. Directional migration (chemotaxis) in the lower chamber was induced by addition of medium containing 5% FBS to the lower chamber. Where indicated parstatin or other peptides were added to lower chamber.
# Cells on the filters were fixed and stained. The non-migrated cells (cells in upper surface) were removed by wiping with cotton swabs. The cells on the lower surface were counted manually under microscope in six predetermined fields. Parstatin (1-41) attenuated chemotactic cell migration through microporous membrane in response to serum (FIG. 3C). When human parstatin was combined with 5% FBS, the number of migrated cells was reduced in concentration-dependent manner.
# HUVEC cells [2] = assay: MTT cell proliferation assay; format: cell-based, human; conditions: 10 μM
# Experimental: Cell proliferation was evaluated using a 3-(4,5-[…])-2,5-diphenyltetrazolium bromide (MTT, Sigma-Aldrich, St. Louis, Mo.) assay. Endothelial cells (10,000/well) were seeded in 24-well tissue culture plates and incubated with growth medium for 24 h. Cells were then treated with the vehicle or the indicated peptides in medium containing 5% FBS for 1 to 3 days. After 24, 48, or 72 hours, MTT solution (5 mg/ml) was added to each well and incubated for 3 h at 37° C. The blue formazan crystals were solubilized by addition of DMSO and absorbance at 450 nm was recorded using a 96-well plate reader.
# [3] = tested on: renal ischemia-reperfusion injury in Wistar rats
# Experimental: Pathogen-free male Wistar rats weighting 250-300 g were used and treated in compliance with the “Guide for the Care and Use of Laboratory Animals” published by the US National Institutes of Health (NIH Publication NO. 85-23, revised 1996).
# Rats were anesthetized with intramuscular injection of ketamine (25 mg/Kg) and xylazine hydrochloride (10 mg/Kg). After a midline laparotomy, the renal pedicles were identified and bilaterally occluded for a period of 45 min using nontraumatic microaneurysm clamps. The presence of ischemia was visually confirmed by observing blanching of the kidneys. Sham-operated rats were subjected to identical surgical procedures without causing renal ischemia by application of microaneurysm clamps. At the end of ischemia period the clamps were removed and renal reperfusion was established. All rats were killed 4 hours after the initiation of reperfusion.
# Urine was collected during reperfusion, and at the end of the experiments blood samples were taken and analyzed for biochemical markers of renal impairment. Serum creatinine levels were measured as an indicator of glomerular function. Urine concentrations of Na^+ were determined and used in conjunction with serum Na^+ concentrations to estimate FENa which was used as a sensitive indicator of tubular function.
# For histological assessment of renal ischemia-reperfusion injury, the rat kidneys were removed 4 hours after reperfusion, fixed in 10% formalin, embedded in paraffin, sectioned (5-μm thicknesses), and stained with haematoxylin and eosin. Tubular injury was identified by the presence of any of flattened tubular cells, loss of brush border, and cast formation. Ten high-powered fields (hpf's; ×400 magnification) from the outer medulla and corticomedullary junction were examined from each animal to determine the percentage of tubules showing evidence of injury and scored according to the following scale: 0, no injury; 1, less than 10%; 2, 10% to 25%; 3, 26% to 75%; 4, greater than 75%. The 10 scores were averaged to give the tubular injury score for each specimen.
# [4] = tested on: cGMP content of myocardium; assay: myocardial cGMP ELISA after ischemia-reperfusion; format: in vivo, rat; conditions: 1 μg/kg, 120 min reperfusion
# Experimental: To determine whether […] (1-26) protects the heart by a mechanism involving soluble guanylyl cyclase (sGC), rats were treated with ODQ (1 mg/kg, a sGC inhibitor) with or without […] (1-26) (1 μg/kg) prior to ischemia. ODQ abolished the reduction in infarct size caused by […] (1-26), but had no effect alone (FIG. 26A). Tissue accumulation of cGMP was measured after 120 min reperfusion from ischemic and non-ischemic myocardium. In these experiments, the cGMP was measured in the rat hearts by specific ELISA kits according to the manufacturer's instructions (Cayman Chemical, Ann Arbor, Mich.). The hearts (n=6/group) were excised after 120 min reperfusion and immediately frozen in liquid nitrogen, then stored at -80° C. until assayed. Frozen myocardial tissue samples in liquid nitrogen were ground to a fine powder in a stainless-steel mortar. Frozen tissue was dropped into 5-10 volumes (ml of solution/gram of tissue) of 5% trichloroacetic acid (TCA) in water. The samples were homogenized on ice […] using a polytron-type homogenizer. Centrifugation was at 30,000 r.p.m. at room temperature and the supernatant was collected for quantitative immunoassay of cGMP. […] (1-26) treatment group when compared to the control and sham treated groups respectively (FIG. 26B). No difference in cGMP tissue content was observed between the ischemic and non-ischemic zones within the control groups, however, […]
# [5] = tested on: Akt (Ser473), endothelial NOS (Ser1177); assay: immunoblot of phospho-Akt and phospho-eNOS in left ventricle after ischemia-reperfusion; format: in vivo, rat
# Experimental: To determine whether the cardioprotective effect of parstatin (1-26) is mediated through the PI3K/Akt pathway, rats were treated with wortmannin (15 μg/Kg, a potent and specific PI3K inhibitor) alone or in combination with parstatin fragment 1-26 (1 μg/Kg). Wortmannin abrogated the cardioprotective effects of parstatin (1-26) (FIG. 24B). In addition, the left ventricular free wall tissue was homogenized and immunoblot analysis was performed using an anti-phospho-Akt (Ser473) primary antibody (Cell Signaling Technology, Danvers, Mass.). […] Co-treatment with wortmannin blocked parstastin (1-26)-mediated Akt phorsphorylation (FIG. 24C).
# (§1) To determine whether parstatin (1-26) protects the heart by a mechanism involving nitric oxide synthase (NOS), rats were treated with L-NMA (15 μg/Kg, a general NOS inhibitor), with or without parstatin (1-26) (1 μg/Kg) prior to ischemia. […] The role of parstatin (1-26) in endothelial NOS activation was further evaluated by measuring the phosphorylation of Ser1177. In these experiments, the left ventricular free wall tissue was homogenized and immunoblot analysis was performed using an anti-phospho-endothelial NOS (Ser1177) primary antibody (Cell Signaling Technology, Danvers, Mass.). […] In addition, nitrite and nitrate content, a marker of endothelial NOS activity, was measured from both ischemic and non-ischemic tissues. Ischemia and 120 min reperfusion caused an increase in the production of NO in the ischemic tissue from the control group when compared to the sham group (FIG. 25D). […] Pre-ischemic treatment with parstatin (1-26) further increased NO content in the ischemic tissue by an additional 1.4-fold over control values and 2.0-fold over sham treated values.
# [6] = tested on: myocardial ischemia-reperfusion injury in Sprague Dawley rats; conditions: for reduction in infarct size: 1 μg/Kg IV bolus
# Experimental: Parstatin (1-41) was used in an in vivo rat model of cardiac ischemia and reperfusion, and in an in vitro isolated rat heart model of ischemia-reperfusion injury.
# For in vivo infarct size studies, rats were anesthetized with pentobarbital sodium (50 mg/Kg) and heparin (1000 IU/Kg) and underwent 30 min of regional ischemia followed by 120 min of reperfusion. Parstatin (1-41) was administered-intravenously over 1 min starting 15 min prior to ischemia, or 15 min after the onset of ischemia, or 10 seconds after the onset of reperfusion in separate series of experiments (n=6/group).
# To induce ischemia, ligature was positioned around the left main coronary artery and threaded through a plastic snare to permit reversible occlusion of the coronary artery. Coronary occlusion was induced by clamping the snare onto the heart and reperfusion was achieved by releasing the snare. At the end of reperfusion, the coronary artery was re-occluded and the risk zone was delineated by perfusion of 0.5% Evans' blue into the aortic cannula. Hearts were sectioned and incubated in 1% triphenyltetrazolium chloride in phosphate buffer for 15 min to define white necrotic tissue when fixed in 10% formalin for 24 h. Area at risk (AAR) and infarct-to-risk rations were determined by computerized planimetry using J-Image v.i.6 software (NIH, Bethesda, Mass.).
# For in vivo infarct size/ischemia-reperfusion studies, rats were anesthetized with pentobarbital sodium (50 mg/Kg) and heparin (1000 IU/Kg) and underwent 30 min of regional ischemia followed by 120 min of reperfusion. Human hydrophobic parstatin (1-26) fragment was administered intravenously over 1 min at one of three time points: 1) starting 15 min prior to ischemia, 2) 15 min after the onset of ischemia, or 3) 10 seconds after the onset of reperfusion in a separate series of experiments (n=6/group).
# Ischemia was induced by placement of a ligature around the left main coronary artery which was threaded through a plastic snare to permit reversible occlusion of the coronary artery. Coronary occlusion was induced by clamping the snare onto the heart and reperfusion was achieved by releasing the snare. At the end of reperfusion, the coronary artery was re-occluded and the risk zone was delineated by perfusion 0.5% Evans' blue into the aortic cannula.
# Hearts were sectioned and incubated in 1% triphenyltetrazolium chloride in phosphate buffer for 15 min to define white necrotic tissue when fixed in 10% formalin for 24 h. Area at risk (AAR) and infarct-to-risk rations were determined by computerized planimetry using J-Image v.i.6 software (NIH, Bethesda, Mass.). The principal endpoint of these studies was infarct size expressed as a percentage of the area at risk.
# [7] = tested on: nitric oxide content of myocardium; assay: myocardial nitrite and nitrate content after ischemia-reperfusion; format: in vivo, rat; conditions: 1 μg/kg pre-ischemic
# Experimental: as §1
# [8] = parstatin (1-26) IV 10 seconds after initiation of reperfusion
sequence,measurement,setting,value
"TRARRPESKATNATLDPR (listed as Homo sapiens) [parstatin (24-41), 24-41 (18 amino acids) of human parstatin, hydrophilic fragment]",chemotactic cell migration,HUVEC cells [1],without effect
same,HUVEC cell proliferation,HUVEC cells [2],without effect
MGPRRLLLVAACFSLCGPLLSARTRA (listed as Homo sapiens) [parstatin (1-26)],histological scoring of renal injury,[3]; 10 μg/Kg,significantly reduced
same,reduction of FENa,[3]; 10 μg/Kg IV pre-ischemic,66%
same,reduction of serum creatinine,[3]; 10 μg/Kg IV pre-ischemic,27%
same,reduction of FENa,[3]; [8],72%
same,reduction of serum creatinine,[3]; [8],30%
same,cGMP production in the ischemic zone vs non-ischemic zone,[4],2.2 fold
same,tissue accumulation of cGMP in the ischemic tissue compared to control,[4],4.6 fold
same,tissue accumulation of cGMP in the ischemic tissue compared to sham,[4],10.9 fold
same,phosphorylation of Akt/Ser473,"[5]; 1 μg/kg pre-ischemic, 5 min reperfusion, vs control rats",increased phosphorylation
same,endothelial NOS phosphorylation (Ser1177),"[5]; 1 μg/kg, 5 min reperfusion",increased endothelial NOS phosphorylation
same,Ser1177 phosphorylation with wortmannin,[5]; wortmannin,blocked
same,Akt phosphorylation with wortmannin co-treatment,[5]; wortmannin 15 μg/kg,blocked
same,reduction in infarct size,[6]; 10 seconds after initiation of reperfusion,62%
same,reduction in infarct size,[6]; 15 min after the onset of ischemia,73%
same,infarct sparing effect with L-NMA,"[6]; 1 μg/Kg, L-NMA 15 μg/Kg",abolished
same,infarct size in the presence of pertussis toxin,"[6]; 1 μg/Kg, pertussis toxin 25 μg/Kg 48 hours prior",unable to reduce infarct size
same,cardioprotective effects with wortmannin,"[6]; 1 μg/Kg, wortmannin 15 μg/Kg",abrogated
same,reduction in infarct size with ODQ,"[6]; 1 μg/kg, ODQ 1 mg/kg",abolished
same,reduction in infarct size compared with control,[6]; 10 μg/Kg IV 15 min prior to ischemia,78%
same,infarct size,"[6]; 10 μg/Kg IV 15 min prior to ischemia, 30 min ischemia, 120 min reperfusion",13±1 % of the area at risk
same,cardioprotective effects with 5-HD,[6]; 5-HD 10 mg/Kg,blocked
same,cardioprotective effects with HMR 1098,[6]; HMR 1098 6 mg/kg,blocked
same,cardioprotection with atractyloside,[6]; atractyloside 3 mg/Kg,partial blockage
same,cardioprotective effect with glibenclamide,[6]; glibenclamide 3 mg/kg,completely diminished
same,"baseline hemodynamics (heart rate, blood pressures) between groups","[6]; rat, in vivo",no significant differences
same,NO levels in non-ischemic tissue compared to control and sham rats,[7],No differences
same,NO content in the ischemic tissue over control values,[7]; 120 min reperfusion,1.4 fold
same,NO content in the ischemic tissue over sham treated values,[7]; 120 min reperfusion,2.0 fold
